# Measured values: US10206394B2, “Herbicidal compounds” (Syngenta Participations AG, priority 2014, dated 2019)
# Like-named read-outs stand apart in the source and are kept apart here.
# Legend:
# Experiment in all cases: Glasshouse assay for herbicidal activity (pre- and post-emergence), percentage phytotoxicity
# Assay type in all cases: in vivo
# [1] = test system: Alopecurus myosuroides (ALOMY); settings: Alopecurus myosuroides
# Experimental: (§1) Test—Glasshouse Assay for Herbicidal Activity
# (§2) Seeds of a variety of monocotyledonous and dicotyledonous test plants are sown in standard soil in pots. The plants are cultivated for one day (for pre-emergence (PRE)) or for about 12 days (for post-emergence (POST)) under controlled conditions in a glasshouse (warm climate species at 24/18° C., cool climate species at 20/16° C., both at day/night; 16 hours light; 65% humidity).
# (§3) The test plants are then grown on, in a glasshouse (greenhouse) under controlled conditions (warm climate species at 24/18° C., cool climate species at 20/16° C., both at day/night; 16 hours light; 65% humidity) and are watered twice daily. 15 days after application of the test herbicide (15 DAA) (for post-emergence), and 20 days after application of the test herbicide (20 DAA) (for pre-emergence), the test plants are evaluated visually, and an assessed percentage phytotoxicity score is given for each herbicidal application on each plant species (with 100%=total damage to plant; 0%=no damage to plant).
# (§4) The plant species tested are as follows: Alopecurus myosuroides (ALOMY), Avena fatua (AVEFA), Lolium perenne (LOLPE), Echinochloa crus-galli (ECHCG).
# [2] = test system: Avena fatua (AVEFA); settings: Avena fatua
# Experimental: as §1, §2, §3, §4
# [3] = test system: Echinochloa crus-galli (ECHCG); settings: Echinochloa crus-galli
# Experimental: as §1, §2, §3, §4
# [4] = test system: Lolium perenne (LOLPE); settings: Lolium perenne
# Experimental: as §1, §2, §3, §4
# [5] = post-emergence, 360 h, Rate 250 g/ha, post-emergence, assessed visually 15 DAA, 100%=total damage, 0%=no damage, read-out: Post-emergence herbicidal activity (percentage phytotoxicity) ALOMY POST
# [6] = pre-emergence, 480 h, Rate 250 g/ha, pre-emergence, assessed visually 20 DAA, 100%=total damage, 0%=no damage, read-out: Pre-emergence herbicidal activity (percentage phytotoxicity) ALOMY PRE
# [7] = post-emergence, 360 h, Rate 250 g/ha, post-emergence, assessed visually 15 DAA, 100%=total damage, 0%=no damage, read-out: Post-emergence herbicidal activity (percentage phytotoxicity) AVEFA POST
# [8] = pre-emergence, 480 h, Rate 250 g/ha, pre-emergence, assessed visually 20 DAA, 100%=total damage, 0%=no damage, read-out: Pre-emergence herbicidal activity (percentage phytotoxicity) AVEFA PRE
# [9] = post-emergence, 360 h, Rate 250 g/ha, post-emergence, assessed visually 15 DAA, 100%=total damage, 0%=no damage, read-out: Post-emergence herbicidal activity (percentage phytotoxicity) ECHCG POST
# [10] = pre-emergence, 480 h, Rate 250 g/ha, pre-emergence, assessed visually 20 DAA, 100%=total damage, 0%=no damage, read-out: Pre-emergence herbicidal activity (percentage phytotoxicity) ECHCG PRE
# [11] = post-emergence, 360 h, Rate 250 g/ha, post-emergence, assessed visually 15 DAA, 100%=total damage, 0%=no damage, read-out: Post-emergence herbicidal activity (percentage phytotoxicity) LOLPE POST
# [12] = pre-emergence, 480 h, Rate 250 g/ha, pre-emergence, assessed visually 20 DAA, 100%=total damage, 0%=no damage, read-out: Pre-emergence herbicidal activity (percentage phytotoxicity) LOLPE PRE
# [13] = post-emergence, 360 h, 250 g/ha, post-emergence, 15 DAA, visual assessment (100%=total damage, 0%=no damage), read-out: Post-emergence herbicidal activity (percentage phytotoxicity) ALOMY POST
# [14] = pre-emergence, 480 h, 250 g/ha, pre-emergence, 20 DAA, visual assessment (100%=total damage, 0%=no damage), read-out: Pre-emergence herbicidal activity (percentage phytotoxicity) ALOMY PRE
# [15] = post-emergence, 360 h, 250 g/ha, post-emergence, 15 DAA, visual assessment (100%=total damage, 0%=no damage), read-out: Post-emergence herbicidal activity (percentage phytotoxicity) AVEFA POST
# [16] = pre-emergence, 480 h, 250 g/ha, pre-emergence, 20 DAA, visual assessment (100%=total damage, 0%=no damage), read-out: Pre-emergence herbicidal activity (percentage phytotoxicity) AVEFA PRE
# [17] = post-emergence, 360 h, 250 g/ha, post-emergence, 15 DAA, visual assessment (100%=total damage, 0%=no damage), read-out: Post-emergence herbicidal activity (percentage phytotoxicity) ECHCG POST
# [18] = pre-emergence, 480 h, 250 g/ha, pre-emergence, 20 DAA, visual assessment (100%=total damage, 0%=no damage), read-out: Pre-emergence herbicidal activity (percentage phytotoxicity) ECHCG PRE
# [19] = post-emergence, 360 h, 250 g/ha, post-emergence, 15 DAA, visual assessment (100%=total damage, 0%=no damage), read-out: Post-emergence herbicidal activity (percentage phytotoxicity) LOLPE POST
# [20] = pre-emergence, 480 h, 250 g/ha, pre-emergence, 20 DAA, visual assessment (100%=total damage, 0%=no damage), read-out: Pre-emergence herbicidal activity (percentage phytotoxicity) LOLPE PRE
smiles,measurement,setting,value
Cc1cc(-c2ccc(Cl)cn2)cc(C)c1C1C(=O)CC(CC(=O)NCc2cccc(Cl)c2)C1=O (centres unmarked) [Compound A134],pest or weed control at 250 g/ha,[1]; [5],90%
same,pest or weed control at 250 g/ha,[1]; [6],70%
same,pest or weed control at 250 g/ha,[2]; [7],90%
same,pest or weed control at 250 g/ha,[2]; [8],90%
same,pest or weed control at 250 g/ha,[3]; [9],100%
same,pest or weed control at 250 g/ha,[3]; [10],90%
same,pest or weed control at 250 g/ha,[4]; [11],100%
same,pest or weed control at 250 g/ha,[4]; [12],80%
Cc1cc(-c2ncc(F)cc2F)cc(C)c1C1C(=O)CC(CC(=O)NCC2CC2(Cl)Cl)C1=O (centres unmarked) [Compound B77],pest or weed control at 250 g/ha,[1]; [13],100%
same,pest or weed control at 250 g/ha,[1]; [14],90%
same,pest or weed control at 250 g/ha,[2]; [15],100%
same,pest or weed control at 250 g/ha,[2]; [16],90%
same,pest or weed control at 250 g/ha,[3]; [17],100%
same,pest or weed control at 250 g/ha,[3]; [18],100%
same,pest or weed control at 250 g/ha,[4]; [19],100%
same,pest or weed control at 250 g/ha,[4]; [20],100%
Cc1cc(C)c(C2C(=O)CC(CC(=O)NCC3(C)CC3(Cl)Cl)C2=O)c(C)c1 (centres unmarked) [Compound B82],pest or weed control at 250 g/ha,[1]; [13],70%
same,pest or weed control at 250 g/ha,[1]; [14],70%
same,pest or weed control at 250 g/ha,[2]; [15],60%
same,pest or weed control at 250 g/ha,[2]; [16],40%
same,pest or weed control at 250 g/ha,[3]; [17],50%
same,pest or weed control at 250 g/ha,[3]; [18],90%
same,pest or weed control at 250 g/ha,[4]; [19],70%
same,pest or weed control at 250 g/ha,[4]; [20],80%
Cc1ccc(/C=C/C2(NC(=O)CC3CC(=O)C(c4c(C)cc(C)cc4C)C3=O)CC2)cc1 (centres unmarked) [Compound A101],pest or weed control at 250 g/ha,[1]; [5],10%
same,pest or weed control at 250 g/ha,[2]; [7],0%
same,pest or weed control at 250 g/ha,[3]; [9],20%
same,pest or weed control at 250 g/ha,[4]; [11],40%
Cc1cc(C)c(C2C(=O)CC(CC(=O)NCc3ncccc3Cl)C2=O)c(C)c1 (centres unmarked) [Compound A107],pest or weed control at 250 g/ha,[1]; [5],80%
same,pest or weed control at 250 g/ha,[1]; [6],80%
same,pest or weed control at 250 g/ha,[2]; [7],90%
same,pest or weed control at 250 g/ha,[2]; [8],10%
same,pest or weed control at 250 g/ha,[3]; [9],70%
same,pest or weed control at 250 g/ha,[3]; [10],80%
same,pest or weed control at 250 g/ha,[4]; [11],80%
same,pest or weed control at 250 g/ha,[4]; [12],90%
Cc1cc(-c2ncc(Cl)cn2)cc(C)c1C1C(=O)CC(CC(=O)NCC2CC2)C1=O (centres unmarked) [Compound B342],pest or weed control at 250 g/ha,"[1]; post-emergence, 360 h, Rate 250 g/ha, post-emergence, visual assessment 15 DAA, 100%=total damage, 0%=no damage, read-out: Post-emergence herbicidal activity (percentage phytotoxicity) ALOMY POST",100%
same,pest or weed control at 250 g/ha,"[1]; pre-emergence, 480 h, Rate 250 g/ha, pre-emergence, visual assessment 20 DAA, 100%=total damage, 0%=no damage, read-out: Pre-emergence herbicidal activity (percentage phytotoxicity) ALOMY PRE",100%
same,pest or weed control at 250 g/ha,"[2]; post-emergence, 360 h, Rate 250 g/ha, post-emergence, visual assessment 15 DAA, 100%=total damage, 0%=no damage, read-out: Post-emergence herbicidal activity (percentage phytotoxicity) AVEFA POST",100%
same,pest or weed control at 250 g/ha,"[2]; pre-emergence, 480 h, Rate 250 g/ha, pre-emergence, visual assessment 20 DAA, 100%=total damage, 0%=no damage, read-out: Pre-emergence herbicidal activity (percentage phytotoxicity) AVEFA PRE",90%
same,pest or weed control at 250 g/ha,"[3]; post-emergence, 360 h, Rate 250 g/ha, post-emergence, visual assessment 15 DAA, 100%=total damage, 0%=no damage, read-out: Post-emergence herbicidal activity (percentage phytotoxicity) ECHCG POST",100%
same,pest or weed control at 250 g/ha,"[3]; pre-emergence, 480 h, Rate 250 g/ha, pre-emergence, visual assessment 20 DAA, 100%=total damage, 0%=no damage, read-out: Pre-emergence herbicidal activity (percentage phytotoxicity) ECHCG PRE",100%
same,pest or weed control at 250 g/ha,"[4]; post-emergence, 360 h, Rate 250 g/ha, post-emergence, visual assessment 15 DAA, 100%=total damage, 0%=no damage, read-out: Post-emergence herbicidal activity (percentage phytotoxicity) LOLPE POST",100%
same,pest or weed control at 250 g/ha,"[4]; pre-emergence, 480 h, Rate 250 g/ha, pre-emergence, visual assessment 20 DAA, 100%=total damage, 0%=no damage, read-out: Pre-emergence herbicidal activity (percentage phytotoxicity) LOLPE PRE",100%
